In the supplement of paper PMC10307832:

Key:
Assay in all cases: relative viability (nuclei count vs DMSO), 5 days (fraction); higher = more cells survive
XMD8-85 + Linsitinib = compound: CN1CCN(CC1)C2=CC(=C(C=C2)NC3=NC=C4C(=N3)N(C5=CC=CC=C5C(=O)N4C)C)OC [XMD8-85] + C[C@]1(O)C[C@@H](c2nc(-c3ccc4ccc(-c5ccccc5)nc4c3)c3c(N)nccn32)C1 [Linsitinib] (partner 1 µM)
Outline: (§1)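 Nuclei were stained with Hoechst during a one-step fixation (final 0.05% Triton X-100, 1% formaldehyde, 1 ug/ml Hoechst) carried out 5 days after dosing, then counted on 4× images. The cells, lung cancer lines in 1536-well plates, had been dosed by pin tool the day after seeding with one drug alone or a fixed anchor-drug dose plus five library-drug doses (not always all listed) in √10 steps. Relative viability is the nuclei count in treated wells divided by that in vehicle wells, and each value is the median of duplicate plates.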

XMD8-85 + Phenformin = compound: CN1CCN(CC1)C2=CC(=C(C=C2)NC3=NC=C4C(=N3)N(C5=CC=CC=C5C(=O)N4C)C)OC [XMD8-85] + N=C(N)NC(=N)NCCc1ccccc1 [Phenformin] (partner 250 µM)
Outline: as §1

XMD8-85 + OSI-027 = compound: CN1CCN(CC1)C2=CC(=C(C=C2)NC3=NC=C4C(=N3)N(C5=CC=CC=C5C(=O)N4C)C)OC [XMD8-85] + COc1cccc2cc(-c3nc([C@H]4CC[C@H](C(=O)O)CC4)n4ncnc(N)c34)[nH]c12 [OSI-027] (partner 0.5 µM)
Outline: as §1

4EGI-1 + Luminespib = compound: O=C(O)C(Cc1ccccc1[N+](=O)[O-])=NNc1nc(-c2ccc(Cl)c(Cl)c2)cs1 (mixture of isomers) [4EGI-1] + CCNC(=O)c1noc(-c2cc(C(C)C)c(O)cc2O)c1-c1ccc(CN2CCOCC2)cc1 [Luminespib] (partner 0.01 µM)
Outline: as §1

Cell Line	relative viability (XMD8-85 + Linsitinib; first compound 0.08 µM)	relative viability (XMD8-85 + Linsitinib; first compound 0.253 µM)	relative viability (XMD8-85 + Linsitinib; first compound 0.8 µM)	relative viability (XMD8-85 + Linsitinib; first compound 2.53 µM)	relative viability (XMD8-85 + Linsitinib; first compound 8 µM)	relative viability (XMD8-85 + Phenformin; first compound 0.08 µM)	relative viability (XMD8-85 + Phenformin; first compound 0.253 µM)	relative viability (XMD8-85 + Phenformin; first compound 0.8 µM)	relative viability (XMD8-85 + Phenformin; first compound 2.53 µM)	relative viability (XMD8-85 + OSI-027; first compound 0.08 µM)	relative viability (XMD8-85 + OSI-027; first compound 0.253 µM)	relative viability (XMD8-85 + OSI-027; first compound 0.8 µM)	relative viability (XMD8-85 + OSI-027; first compound 2.53 µM)	relative viability (XMD8-85 + OSI-027; first compound 8 µM)	relative viability (4EGI-1 + Luminespib; first compound 0.5 µM)	relative viability (4EGI-1 + Luminespib; first compound 5 µM)	relative viability (4EGI-1 + Luminespib; first compound 15.81 µM)	relative viability (4EGI-1 + Luminespib; first compound 50 µM)	relative viability (XMD8-85 + Phenformin; first compound 8 µM)	relative viability (4EGI-1 + Luminespib; first compound 1.581 µM)
LC-2-ad	0.905	0.923	0.836	0.692	0.452	0.592	0.55	0.611	0.595	0.745	0.859	0.794	0.779	0.613	1.13	0.906	0.385	0.269	–	–
LCLC-97TM1	0.168	0.218	0.176	0.199	0.232	0.412	0.412	0.451	0.471	0.485	–	0.623	0.565	0.536	0.875	0.715	0.955	0.0986	0.45	0.675
SW 900	–	–	–	–	–	0.448	0.523	0.675	0.554	0.583	0.623	0.581	0.553	0.304	0.253	0.177	0.156	0.191	0.22	–
NCI-H460	0.594	0.904	0.868	0.821	0.262	0.377	0.59	0.545	0.578	0.557	0.626	0.901	0.731	0.239	0.038	0.0367	0.0323	0.0228	0.1	–
UMC-11	1.01	0.922	1.15	0.848	0.512	0.337	0.348	0.398	0.33	0.457	0.461	0.521	0.436	0.371	1.07	0.999	0.99	0.598	0.232	1.21
HCC-827	0.934	0.975	1.02	0.97	0.974	0.389	–	–	0.49	0.831	0.789	0.714	0.939	1	0.672	0.661	–	0.581	0.45	0.804
201T	1	1.05	0.994	1.05	1.01	0.437	0.467	0.444	0.469	0.88	0.824	0.398	0.367	0.493	1.08	1.09	0.92	0.782	0.447	0.973
NCI-H1755	1.06	1.01	1	1.09	0.907	0.608	0.65	0.429	0.581	0.677	0.787	0.645	–	0.531	0.583	0.418	0.42	0.327	0.495	0.665
NCI-H1944	1.1	1.26	1.25	1.44	1.04	0.186	0.195	0.228	0.207	0.391	0.442	0.461	0.514	0.297	0.717	0.774	0.633	0.561	0.151	–
NCI-H1623	–	–	–	–	–	0.611	0.584	0.578	0.555	0.44	0.395	0.349	0.413	0.368	0.637	0.707	0.383	0.387	–	0.553
NCI-H1563	1.2	1.26	1.13	1.27	0.844	0.65	0.609	0.63	–	0.819	–	0.755	0.715	0.789	0.447	0.542	0.5	0.412	0.615	0.567
NCI-H1666	1.04	0.79	0.859	0.769	0.696	0.578	0.601	0.574	0.567	0.816	0.876	0.893	0.907	0.679	1.1	1.04	0.812	0.397	0.576	0.982
LCLC-103H	1.05	1.03	1.12	1.19	0.857	0.329	0.34	0.36	0.372	0.428	0.441	0.487	–	0.404	0.984	0.989	0.82	0.618	0.303	0.898
NCI-H1734	1.01	0.766	0.863	0.816	0.607	0.397	0.331	0.369	0.382	0.579	0.664	0.609	0.699	0.425	0.203	0.22	0.2	0.177	0.348	0.193
HOP-62	1.15	0.966	0.87	0.814	–	0.595	0.535	0.659	0.683	0.806	0.867	0.842	0.845	0.436	0.974	0.868	0.89	0.31	0.469	–
HCC-15	0.867	0.849	0.843	0.866	0.661	0.465	0.415	0.451	0.468	0.615	0.689	0.669	–	0.541	0.25	0.268	0.157	0.152	0.265	0.437
NCI-H2405	–	0.912	0.951	0.735	0.739	0.391	0.391	0.366	0.381	0.6	0.645	0.604	0.598	0.631	0.7	0.836	0.672	0.771	0.228	0.486
